# Source: patent publication US20020137929A1, “1 - (3-heterocyclylphenyl) isothiourea, -isourea, -guanidine and -amidine herbicidal agents” (Intellectual Property Department, BASF Aktiengesellschaft, priority 1998, published 2002)
# Tests used:
# ZEAMX (Corn, Field) [1] = assay: Preemergence herbicidal evaluation; assay type: in vivo, Zea mays; conditions: rated 4-5 weeks after treatment
# How it was run: (§1)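 Rating at 4–5 wk post-spray on a 0–9 visual scale vs control. Application: aqueous acetone, ~0.0156–0.500 kg/ha, to soil surface after seeding, preemergence.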
# [2] = test system: ECHORC (Watergrass (Calif.)); assay: Preemergence weed control under flooded paddy conditions; assay type: in vivo, Echinochloa oryzoides; conditions: rated 3-4 weeks after treatment
# How it was run: (§2)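 Silt loam, seeds in top 0.5 cm; flood held 1.5-3 cm; test cpd as acetone/water 50/50 into flood water, ~0.0313-0.500 kg/ha a.i.; greenhouse 3-4 wk; visual 0-9 score vs control.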
# [3] = test system: ECHORC (Watergrass (Calif.)); assay: Postemergence weed control under flooded paddy conditions; assay type: in vivo, Echinochloa oryzoides; conditions: postemergence weeds, 3-4 weeks after treatment
# How it was run: (§3)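 Weeds 3 to 5 cm tall and rice seedlings at the 1.5 to 2.5 leaf stage were flooded, with water held 1.5 to 3 cm above the soil. Compounds in 50/50 v/v aqueous/acetone went into the flood water at about 0.0313 to 0.500 kg/ha. Visual 0-9 ratings versus control were made 3 to 4 weeks later.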
# CYPSE (Flatsedge) [4] = assay: as above; assay type: in vivo, Cyperus serotinus; conditions: postemergence weeds, 3-4 weeks after treatment
# How it was run: as §3
# SETVI (Foxtail, Green) [5] = assay: Postemergence herbicidal evaluation; assay type: in vivo, Setaria viridis; conditions: postemergence
# How it was run: (§4)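 Compound is applied as a foliar spray to seedlings about two weeks old, formulated in equal parts acetone and water with 0.5% TWEEN 20 and delivered at 40 psi to give about 0.0156–0.500 kg per hectare. Injury is rated visually 0–9 after four to five weeks.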
# SETVI (Foxtail, Green) [6] = assay: Preemergence herbicidal evaluation; assay type: in vivo, Setaria viridis; conditions: rated 4-5 weeks after treatment
# How it was run: as §1
# ORYSAT (Rice, Tebonnet) = assay: Postemergence herbicidal evaluation; assay type: in vivo, Oryza sativa, (L.) Tebonnet; conditions: postemergence
# How it was run: as §4
# ZEAMX (Corn, Field) [7] = assay: Postemergence herbicidal evaluation; assay type: in vivo, Zea mays; conditions: postemergence
# How it was run: as §4
# [8] = test system: SAGPY (Arrowhead (Pygmaea)); assay: Postemergence weed control under flooded paddy conditions; assay type: in vivo, Sagittaria pygmaea; conditions: postemergence weeds, 3-4 weeks after treatment
# How it was run: as §3
# ECHCG (Barnyardgrass) = assay: Preemergence herbicidal evaluation; assay type: in vivo, Echinochloa crus-galli; conditions: rated 4-5 weeks after treatment
# How it was run: as §1
# [9] = test system: TRZAWR (Wheat, Winter, cv Riband); assay: Preemergence herbicidal evaluation; assay type: in vivo, Triticum aestivum; conditions: rated 4-5 weeks after treatment
# How it was run: as §1
# CYPIR (Rice Flatsedge) [10] = assay: Postemergence weed control under flooded paddy conditions; assay type: in vivo, Cyperus iria; conditions: postemergence weeds, 3-4 weeks after treatment
# How it was run: as §3
# CYPSE (Flatsedge) [11] = assay: Preemergence weed control under flooded paddy conditions; assay type: in vivo, Cyperus serotinus; conditions: rated 3-4 weeks after treatment
# How it was run: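 First, seeds or propagules go into the top 0.5 cm of silt loam; next, water is held 1.5 to 3 cm over the soil; then compound (50/50 acetone/water) is pipetted into it at about 0.0313 to 0.500 kg/ha; finally plants are rated visually 0-9 after three to four weeks.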
# CYPIR (Rice Flatsedge) [12] = assay: as above; assay type: in vivo, Cyperus iria; conditions: rated 3-4 weeks after treatment
# How it was run: as §2
smiles,measurement,setting,value
CCOC(=O)CN1C(=O)C(CC(=O)O)S/C1=N/c1cc(-n2c(=O)cc(C(F)(F)F)n(C)c2=O)c(F)cc1Cl (stereo not shown) [Compound 16],ZEAMX preemergence herbicidal rating,"ZEAMX (Corn, Field) [1]; rate 0.0156 kg/ha",0.1
same,ZEAMX preemergence herbicidal rating,"ZEAMX (Corn, Field) [1]; rate 0.0313 kg/ha",0.6
same,ZEAMX preemergence herbicidal rating,"ZEAMX (Corn, Field) [1]; rate 0.0625 kg/ha",1.4
same,ZEAMX preemergence herbicidal rating,"ZEAMX (Corn, Field) [1]; rate 0.1250 kg/ha",1.8
same,ZEAMX preemergence herbicidal rating,"ZEAMX (Corn, Field) [1]; rate 0.2500 kg/ha",3.7
same,ZEAMX preemergence herbicidal rating,"ZEAMX (Corn, Field) [1]; rate 0.5000 kg/ha",6.0
same,Herbicidal rating ECHORC,[2]; 0.0313 kg/ha,0.0
same,Herbicidal rating ECHORC,[2]; 0.0625 kg/ha,0.0
same,Herbicidal rating ECHORC,[2]; 0.1250 kg/ha,0.0
same,Herbicidal rating ECHORC,[2]; 0.2500 kg/ha,0.0
same,Herbicidal rating ECHORC,[3]; rate 0.0313 kg/ha,0.0
same,Herbicidal rating ECHORC,[3]; rate 0.0625 kg/ha,0.0
same,Herbicidal rating ECHORC,[3]; rate 0.1250 kg/ha,0.0
same,Herbicidal rating ECHORC,[3]; rate 0.2500 kg/ha,0.0
same,Herbicidal rating CYPSE,CYPSE (Flatsedge) [4]; rate 0.0313 kg/ha,0.0
same,Herbicidal rating CYPSE,CYPSE (Flatsedge) [4]; rate 0.0625 kg/ha,0.0
same,Herbicidal rating CYPSE,CYPSE (Flatsedge) [4]; rate 0.1250 kg/ha,0.0
same,Herbicidal rating CYPSE,CYPSE (Flatsedge) [4]; rate 0.2500 kg/ha,0.0
same,SETVI herbicidal rating,"SETVI (Foxtail, Green) [5]; rate 0.0157 kg/ha",9.0
same,SETVI herbicidal rating,"SETVI (Foxtail, Green) [5]; rate 0.0313 kg/ha",7.8
same,SETVI herbicidal rating,"SETVI (Foxtail, Green) [5]; rate 0.0625 kg/ha",9.0
same,SETVI herbicidal rating,"SETVI (Foxtail, Green) [5]; rate 0.1250 kg/ha",9.0
same,SETVI herbicidal rating,"SETVI (Foxtail, Green) [5]; rate 0.2500 kg/ha",9.0
same,SETVI preemergence herbicidal rating,"SETVI (Foxtail, Green) [6]; rate 0.0156 kg/ha",0.2
same,SETVI preemergence herbicidal rating,"SETVI (Foxtail, Green) [6]; rate 0.0313 kg/ha",1.0
same,SETVI preemergence herbicidal rating,"SETVI (Foxtail, Green) [6]; rate 0.0625 kg/ha",3.7
same,SETVI preemergence herbicidal rating,"SETVI (Foxtail, Green) [6]; rate 0.1250 kg/ha",7.5
same,SETVI preemergence herbicidal rating,"SETVI (Foxtail, Green) [6]; rate 0.2500 kg/ha",8.5
same,SETVI preemergence herbicidal rating,"SETVI (Foxtail, Green) [6]; rate 0.5000 kg/ha",8.9
same,ORYSAT herbicidal rating,"ORYSAT (Rice, Tebonnet); rate 0.0157 kg/ha",3.0
same,ORYSAT herbicidal rating,"ORYSAT (Rice, Tebonnet); rate 0.0313 kg/ha",4.2
same,ORYSAT herbicidal rating,"ORYSAT (Rice, Tebonnet); rate 0.0625 kg/ha",5.7
same,ORYSAT herbicidal rating,"ORYSAT (Rice, Tebonnet); rate 0.1250 kg/ha",7.3
same,ORYSAT herbicidal rating,"ORYSAT (Rice, Tebonnet); rate 0.2500 kg/ha",7.5
same,ZEAMX herbicidal rating,"ZEAMX (Corn, Field) [7]; rate 0.0157 kg/ha",8.0
same,ZEAMX herbicidal rating,"ZEAMX (Corn, Field) [7]; rate 0.0313 kg/ha",8.1
same,ZEAMX herbicidal rating,"ZEAMX (Corn, Field) [7]; rate 0.0625 kg/ha",8.4
same,ZEAMX herbicidal rating,"ZEAMX (Corn, Field) [7]; rate 0.1250 kg/ha",8.7
same,ZEAMX herbicidal rating,"ZEAMX (Corn, Field) [7]; rate 0.2500 kg/ha",9.0
same,Herbicidal rating SAGPY,[8]; rate 0.0313 kg/ha,0.0
same,Herbicidal rating SAGPY,[8]; rate 0.0625 kg/ha,0.0
same,Herbicidal rating SAGPY,[8]; rate 0.1250 kg/ha,0.0
same,Herbicidal rating SAGPY,[8]; rate 0.2500 kg/ha,0.0
same,ECHCG preemergence herbicidal rating,ECHCG (Barnyardgrass); rate 0.0156 kg/ha,0.0
same,ECHCG preemergence herbicidal rating,ECHCG (Barnyardgrass); rate 0.0313 kg/ha,0.3
same,ECHCG preemergence herbicidal rating,ECHCG (Barnyardgrass); rate 0.0625 kg/ha,0.6
same,ECHCG preemergence herbicidal rating,ECHCG (Barnyardgrass); rate 0.1250 kg/ha,1.8
same,ECHCG preemergence herbicidal rating,ECHCG (Barnyardgrass); rate 0.2500 kg/ha,4.4
same,ECHCG preemergence herbicidal rating,ECHCG (Barnyardgrass); rate 0.5000 kg/ha,7.1
same,TRZAWR preemergence herbicidal rating,[9]; rate 0.0156 kg/ha,0.1
same,TRZAWR preemergence herbicidal rating,[9]; rate 0.0313 kg/ha,0.5
same,TRZAWR preemergence herbicidal rating,[9]; rate 0.0625 kg/ha,0.5
same,TRZAWR preemergence herbicidal rating,[9]; rate 0.1250 kg/ha,0.8
same,TRZAWR preemergence herbicidal rating,[9]; rate 0.2500 kg/ha,2.6
same,TRZAWR preemergence herbicidal rating,[9]; rate 0.5000 kg/ha,5.8
same,Herbicidal rating CYPIR,CYPIR (Rice Flatsedge) [10]; rate 0.0313 kg/ha,0.0
same,Herbicidal rating CYPIR,CYPIR (Rice Flatsedge) [10]; rate 0.0625 kg/ha,0.0
same,Herbicidal rating CYPIR,CYPIR (Rice Flatsedge) [10]; rate 0.1250 kg/ha,4.0
same,Herbicidal rating CYPIR,CYPIR (Rice Flatsedge) [10]; rate 0.2500 kg/ha,9.0
same,Herbicidal rating CYPSE,CYPSE (Flatsedge) [11]; 0.0313 kg/ha,0.0
same,Herbicidal rating CYPSE,CYPSE (Flatsedge) [11]; 0.0625 kg/ha,0.0
same,Herbicidal rating CYPSE,CYPSE (Flatsedge) [11]; 0.1250 kg/ha,0.0
same,Herbicidal rating CYPSE,CYPSE (Flatsedge) [11]; 0.2500 kg/ha,0.0
same,Herbicidal rating CYPIR,CYPIR (Rice Flatsedge) [12]; 0.0313 kg/ha,0.0
same,Herbicidal rating CYPIR,CYPIR (Rice Flatsedge) [12]; 0.0625 kg/ha,0.0
same,Herbicidal rating CYPIR,CYPIR (Rice Flatsedge) [12]; 0.1250 kg/ha,4.0
same,Herbicidal rating CYPIR,CYPIR (Rice Flatsedge) [12]; 0.2500 kg/ha,9.0
